The values that follow come from PMC3493683 (Journal of medicinal chemistry, 2012).

The target of this assay is recombinant β-secretase (memapsin 2, BACE 1) (Homo sapiens, UniProt P56817). Description: BACE 1 inhibitory activity against recombinant β-secretase. It is filed as biochemical. The note with it: for BACE 1 inhibitory activity (in words): recombinant β-secretase.
Sequence of recombinant β-secretase (memapsin 2, BACE 1) (P56817 46-501): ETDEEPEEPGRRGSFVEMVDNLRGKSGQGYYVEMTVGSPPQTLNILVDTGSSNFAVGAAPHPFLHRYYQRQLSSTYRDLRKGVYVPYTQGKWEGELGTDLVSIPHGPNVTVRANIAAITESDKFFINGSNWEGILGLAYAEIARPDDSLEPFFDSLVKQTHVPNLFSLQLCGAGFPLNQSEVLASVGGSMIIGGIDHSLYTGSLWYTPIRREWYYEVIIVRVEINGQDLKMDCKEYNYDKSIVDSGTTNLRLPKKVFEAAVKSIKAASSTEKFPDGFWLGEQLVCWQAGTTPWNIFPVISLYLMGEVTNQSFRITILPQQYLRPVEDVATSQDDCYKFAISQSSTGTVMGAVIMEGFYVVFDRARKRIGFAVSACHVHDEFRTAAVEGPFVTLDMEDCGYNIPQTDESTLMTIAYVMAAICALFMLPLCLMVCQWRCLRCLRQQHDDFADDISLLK

For `CC(C)CN(C)C(=O)[C@@H](NC[C@H](Cc1ccccc1)NC(=O)c1cc(C(=O)N[C@H](C)c2ccccc2)cc(N(C)S(C)(=O)=O)c1)[C@H](C)O` [Inhibitor 7], the “BACE 1 inhibitory activity (in words)” value is “abolished all BACE 1 inhibitory activity”.
The same measure, in the same setting: then `CC(C)CNC[C@@H](NC[C@H](Cc1ccccc1)NC(=O)c1cc(C(=O)N[C@H](C)c2ccccc2)cc(N(C)S(C)(=O)=O)c1)[C@H](C)O` [Inhibitor 9], with “total loss in potency”.
For the compound `CCC[C@H](O)[C@H](NC[C@H](Cc1ccccc1)NC(=O)c1cc2c3c(c1)c(CC)cn3CCS(=O)(=O)N2C)C(=O)NCC(C)C` [Inhibitor 19], the “improvement in the potency (BACE 1)” value (compared with inhibitor 18) is recorded as “around 18 fold”.
As for `CCC[C@H](O)[C@H](NC[C@H](Cc1ccccc1)NC(=O)c1cc2c3c(c1)c(CC)cn3CC(C)(C)S(=O)(=O)N2C)C(=O)NCC(C)C` [Inhibitor 20], the “potency enhancement (BACE 1)” value (over unsubstituted inhibitor 19) was more than 10 fold.
